The values below come from article PMC3001719, “The heme sensing response regulator HssR in Staphylococcus aureus but not the homologous RR23 in Listeria monocytogenes modulates susceptibility to the antimicrobial peptide plectasin” (BMC Microbiology, 2010).

In experiment [1] the test system is hrtB and hssR expression in wild type S. aureus. The experiment can be described thus: Expression of hrtB and hssR, northern blot and quantitative real-time PCR. The experiment is classed as cell-based, Staphylococcus aureus. The following applies: plectasin 35 μg/ml, 10 and 90 minutes, northern blot and quantitative real-time PCR (P > 0.05). The method, then:
Wild type S. aureus and the hssR mutant were grown to an absorbance at 600 nm of 0.45 ± 0.1, samples were withdrawn for the isolation of RNA. Plectasin (35 μg/ml) was added to the growing culture, and after 10 and 90 minutes samples were also withdrawn. Cells were quickly cooled and lysed mechanically using the FastPrep machine (Bio101; Q-biogene), and RNA was isolated by the RNeasy kit (QIAGEN, Valencia, Calif.) according to the manufacturer's instructions. Northern Blotting: RNA was transferred to a nylon membrane (Boehringer Mannheim) by capillary blotting as previously described. Hybridization was performed using gene-specific probes that had been labelled with [^32P]dCTP using the Ready-to-Go DNA-labelling beads from Amersham Biosciences. Primers for probes amplifying hrtB and hssR: hrtB-1F:(5'[…]3'), hrtB-2R: (5'[…]3'), hssR-1F: (5'[…]3'), hssR-2R:(5' […]3'). All steps were repeated in two independent experiments giving similar results. Quantitative RT-PCR: RNA was treated with DNase and RevertAid™ H Minus first strand cDNA synthesis Kit (Fermentas). […] Statistical analysis on QRTPCR results using GraphPad prism5, 1Way Anova with Dunnett's Multiple comparison test (GraphPad Software, Inc) determined changes in expression comparing time 0 to time 10 minutes or 90 minutes.

In experiment [2] the test system is L. monocytogenes. Description: Extracellular protein profile by SDS-PAGE. The experiment is classed as cell-based, Listeria monocytogenes. The following applies: L. monocytogenes grown with or without plectasin overnight at 37°C in BHI; data not shown. The protocol: Prewarmed TSB and BHI (25 ml) in a 250 ml Erlenmeyer flask was inoculated with S. aureus strains and L. monocytogenes strains, respectively. These flasks were grown with and without plectasin at 37°C overnight (≈ 17 h) with shaking. The next morning, the exact absorbance at 600 nm of the cultures was measured, and 15 ml of culture was centrifuged to precipitate the cells (6 000 RPM; 7 min; 0°C). The supernatant was transferred to a 50 ml Blue cap bottle (placed in an ice/water bath), and the extracellular proteins were precipitated by adding one volume of ice-cold 96% EtOH and left in the refrigerator overnight for proteins to precipitate. Precipitated proteins were collected by centrifugation (11,000 RPM; 30 min; 0°C). Protein pellets were suspended in a volume of 50 mM Tris-HCl (pH 6.8) adjusted to the original absorbance of the overnight culture so that 15 ml of overnight culture with absorbance at 600 nm of 5.0 was suspended in 0.8 ml of 50 mM Tris-HCl (pH 6.8). A sample of 15 μl of the protein extracts was analysed on NuPAGE® 4-12% Bis-Tris gels (Invitrogen) using the X Cell SureLock® Mini-Cell system (Invitrogen) as recommended by the supplier. The gels were Coomassie stained using GelCode® Blue Stain Reagent (Pierce).

In experiment [3] the test system is plasmid DNA (pBluescript II SK+). The experiment can be described thus: DNA-binding analysis by in vitro gel retardation. The following applies: 100 ng plasmid DNA with increasing amounts of peptide, 1 h at room temperature, data not shown. The protocol: Gel retardation analysis were performed as described by Nan et al by mixing 100 ng of plasmid DNA (pBluescript II SK^+(Stratagene)) with increasing amounts of peptide in 20 μl binding buffer (5% glycerol, 10 mM Tris, 1 mM EDTA, 1 mM dithiothreitol, 20 mM KCL and 50 μg ml^-1 bovine serum albumin). Reaction mixtures were incubated 1 h at room temperature and subjected to 1% agarose gel electrophoresis and visualised using ethidium bromide.

In experiment [4] the test system is L. monocytogenes wild type. The experiment can be described thus: Spontaneous mutation control on plectasin plates. The experiment is classed as cell-based, Listeria monocytogenes. The following applies: L. monocytogenes wild type grown on BHI with 4, 5 or 10 fold MIC of plectasin. The method, then: The transposon mutant libraries were screened on agar plates for increased resistance to plectasin as compared to wild-type sensitivity. Wild-type sensitivity was determined by plating approx. 1.0 × 10^7 CFU/ml on TSB agar containing plectasin (S. aureus) and approx. […] Plates were incubated at 37°C for 3 days and inspected for growth. […]

Experiment [5] concerns S. aureus 15981 wild type. Description: Growth in TSB with plectasin. The following applies: plectasin 35 μg/ml, 37°C, absorbance at 600 nm. The experiment is classed as cell-based, Staphylococcus aureus. The protocol: (§1) Overnight cultures of S. aureus were diluted to an absorbance at 600 nm of 0.05 in TSB with and without 4 μM hemin and/or 35 μg/ml plectasin and grown at 37°C. Measurements of the absorbance were made every 30 minutes.

The test system of experiment [6] is S. aureus 8325-4 hssR::bursa/pRMC2-hssRS. Description: Growth in TSB with plectasin. The experiment is classed as cell-based, Staphylococcus aureus. The following applies: plectasin 35 μg/ml, 37°C, absorbance at 600 nm. The method, then: as §1
The subject of experiment [7] is S. aureus 15981 ΔTCS15 (hssRS) mutant. Description: Growth in TSB with plectasin. The experiment is classed as cell-based, Staphylococcus aureus. The following applies: plectasin 35 μg/ml, 37°C, absorbance at 600 nm. The protocol: as §1
The test system of experiment [8] is S. aureus 8325-4 hssR::bursa transposon mutant. The experiment can be described thus: Growth in TSB with plectasin. The experiment is classed as cell-based, Staphylococcus aureus. The following applies: plectasin 35 μg/ml, 37°C, absorbance at 600 nm. The protocol:
as §1

The test system of experiment [9] is S. aureus hssR mutants. Description: MIC of hssR mutants compared to wild type. The experiment is classed as cell-based, Staphylococcus aureus. The following applies: ratio of MIC, S. aureus hssR response regulator mutants vs wild type, regardless of the genetic background. The protocol: Minimal inhibitory concentrations (MIC) of plectasin, eurocin, protamine, novicidin, and novispirin G10 were determined using a microbroth dilution method. Colonies from a BHI plate incubated overnight at 37 °C were suspended in MHB pH 7.4 to an absorbance at 546 nm of 0.11-0.12 at 546 nm (approx. 1.0 × 10^8 CFU/ml) and diluted in MHB to a concentration of 5.0 × 10^5 CFU/ml. Ninety μl of bacterial suspension was incubated with 10 μl of peptide solution in polypropylene 96-well plates (Nunc, 442587) for 18-24 h at 37°C. The peptide solutions were made fresh on the day of assay. The range of concentrations assayed were 0.25-256 μg/ml for plectasin and eurocin, 0.125-128 μg/ml for protamine and novispirin G10, and 0.031-32 μg/ml for novicidin. MIC was the lowest peptide concentration at which visual growth was inhibited.

Where “and” joins values, the source holds several entries; their conditions need not be identical. Equal values may be shown once.

On to `CC[C@H](C)[C@@H]1NC(=O)[C@H](CO)NC(=O)[C@H](CCCCN)NC(=O)[C@@H]2CSSC[C@@H](C(=O)N[C@@H](Cc3ccc(O)cc3)C(=O)O)NC(=O)[C@H](CCCCN)NC(=O)[C@@H]3CSSC[C@H](NC(=O)[C@H](CCC(N)=O)NC(=O)[C@H](CCSC)NC(=O)[C@H](CC(=O)O)NC(=O)[C@H](CC(=O)O)NC(=O)[C@H](CCC(=O)O)NC(=O)[C@H](CC(=O)O)NC(=O)[C@H](Cc4c[nH]c5ccccc45)NC(=O)[C@@H]4CCCN4C(=O)CNC(=O)[C@H](CC(N)=O)NC(=O)[C@@H](NC(=O)CNC(=O)[C@H](Cc4ccccc4)NC(=O)CN)CSSC[C@H](NC(=O)[C@H](Cc4ccc(O)cc4)NC(=O)CNC(=O)CNC(=O)[C@H](CCCCN)NC(=O)[C@H](Cc4ccc(O)cc4)NC(=O)CNC(=O)[C@H](CCCCN)NC1=O)C(=O)N[C@@H](C)C(=O)N[C@@H](CCCCN)C(=O)NCC(=O)NCC(=O)N[C@@H](Cc1ccccc1)C(=O)N[C@@H](C(C)C)C(=O)N3)C(=O)N[C@@H](Cc1c[nH]cn1)C(=O)N[C@@H](CC(N)=O)C(=O)N[C@@H](Cc1c[nH]cn1)C(=O)N2` [plectasin], for which the “Expression of hrtB and hssR” value in [1] is reported as “no change of expression”. For the same compound, in experiment [2], the “Abundance of extracellular proteins” value is listed as “no difference in the abundance of extracellular proteins”. For the same compound, the “Binding to DNA” value in experiment [3] is listed as “unable to demonstrate binding”. For the same compound, the “Spontaneous mutations leading to changes in sensitivity” value in experiment [4] is “no spontaneous mutations”. The “Growth in the presence of plectasin” value was “inhibited the growth” in experiment [5], “inhibited the growth to a level comparable to wild type” in experiment [6], “hardly affected the growth” in experiment [7] and “hardly affected the growth” in experiment [8]. Further, in experiment [9], the “Increased resistance of hssR mutants compared to the wild type” value is 2 to 4 fold and 2-4 fold.
